Test results taken from ChEMBL document CHEMBL1129211, “Design and synthesis of sialyl Lex mimetics based on carbocyclic scaffolds derived from () quinic acid” (Bioorg Med Chem Lett, 1997).

How the values were obtained:
[1] = target: T1, E-selectin (Homo sapiens) (UniProt P16581); experiment: Tested for binding activity against Selectin E of the compound; inactive
T1 sequence (whole entry): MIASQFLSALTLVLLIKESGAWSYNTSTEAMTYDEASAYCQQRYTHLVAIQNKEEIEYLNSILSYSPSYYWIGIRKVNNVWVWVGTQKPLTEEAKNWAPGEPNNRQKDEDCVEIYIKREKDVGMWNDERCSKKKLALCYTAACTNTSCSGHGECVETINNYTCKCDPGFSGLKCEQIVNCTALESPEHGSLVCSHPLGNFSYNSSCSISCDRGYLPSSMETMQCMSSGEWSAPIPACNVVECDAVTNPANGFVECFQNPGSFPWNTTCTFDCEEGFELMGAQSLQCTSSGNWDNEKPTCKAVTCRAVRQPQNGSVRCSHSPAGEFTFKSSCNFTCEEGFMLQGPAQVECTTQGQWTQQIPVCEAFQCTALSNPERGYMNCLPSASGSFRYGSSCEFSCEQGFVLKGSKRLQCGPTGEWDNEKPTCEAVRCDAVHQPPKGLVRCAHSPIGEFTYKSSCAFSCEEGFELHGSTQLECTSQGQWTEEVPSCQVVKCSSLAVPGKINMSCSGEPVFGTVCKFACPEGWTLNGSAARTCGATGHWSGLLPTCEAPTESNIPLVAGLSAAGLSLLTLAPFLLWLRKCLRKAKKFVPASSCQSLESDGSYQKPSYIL

[2] = target: T1, E-selectin (Homo sapiens); experiment: Tested for binding activity against Selectin E of the compound

Row | Compound | Activity [1] [mM] | Activity [2] [mM]
1 | C[C@@H]1O[C@@H](O[C@@H]2[C@@H](O)C[C@@](O)(CO)C[C@H]2O[C@@H]2O[C@@H](CO)[C@H](O)[C@H](OCC(=O)O)[C@@H]2O)[C@@H](O)[C@@H](O)[C@@H]1O | > 10 | –
2 | CC1OC(OC(C)(C)COCC2(O)CCC(O)C(OCC(=O)O)C2O)C(O)C(O)C1O (centres undefined) | > 10 | –
3 | CC(=O)N[C@H]1[C@H]([C@H](O)[C@H](O)CO)O[C@@](O[C@@H]2[C@H](O)[C@H](O[C@@H]3C[C@](O)(CO)C[C@H](O)[C@H]3O[C@@H]3O[C@@H](C)[C@@H](O)[C@H](O)[C@@H]3O)O[C@@H](CO)[C@@H]2O)(C(=O)O)C[C@H]1O | – | 1
4 | CC1OC(OC(C)(C)COCC2CC(O)C(O)C(OCC(=O)O)C2)C(O)C(O)C1O (centres undefined) | > 10 | –
